{
  "source": "patent US20080267939A1",
  "about": "“SYNERGISTIC ANTI-HYPERTENSIVE PHYTO-NUTRACEUTICAL COMPOSITION” (priority 2006, published 2008)",
  "origin": "cited, not measured here",
  "key": {"[1]": {"system": "bacterial resistance mechanism (multidrug pump)", "details": "in the presence of 5′-MHC"}, "[2]": {"system": "aged diabetic Zucker fatty rats"}, "blood pressure [3]": {"system": "blood pressure", "details": "lower doses"}, "[4]": {"system": "patients having class III or IV cardiomiopathy", "details": "group A, during CoQ10 treatment, oral"}, "[5]": {"biological_target": "platelet activating factor (PAF) membrane receptors (Homo sapiens, UniProt P25105)", "sequence (P25105 whole entry)": "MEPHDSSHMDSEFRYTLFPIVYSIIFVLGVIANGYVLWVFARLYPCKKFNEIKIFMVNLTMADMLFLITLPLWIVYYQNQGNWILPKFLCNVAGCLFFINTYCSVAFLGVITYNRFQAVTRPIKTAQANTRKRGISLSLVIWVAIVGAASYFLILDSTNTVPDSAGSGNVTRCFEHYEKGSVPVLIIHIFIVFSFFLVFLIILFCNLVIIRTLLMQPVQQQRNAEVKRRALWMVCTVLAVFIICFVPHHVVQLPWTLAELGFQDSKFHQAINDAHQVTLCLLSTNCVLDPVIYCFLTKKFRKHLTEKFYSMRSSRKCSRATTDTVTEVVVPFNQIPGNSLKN"}, "[6]": {"biological_target": "T1, endothelial NO synthase (eNOS) (Homo sapiens, UniProt P29474)", "T1 sequence (P29474 1-1203)": "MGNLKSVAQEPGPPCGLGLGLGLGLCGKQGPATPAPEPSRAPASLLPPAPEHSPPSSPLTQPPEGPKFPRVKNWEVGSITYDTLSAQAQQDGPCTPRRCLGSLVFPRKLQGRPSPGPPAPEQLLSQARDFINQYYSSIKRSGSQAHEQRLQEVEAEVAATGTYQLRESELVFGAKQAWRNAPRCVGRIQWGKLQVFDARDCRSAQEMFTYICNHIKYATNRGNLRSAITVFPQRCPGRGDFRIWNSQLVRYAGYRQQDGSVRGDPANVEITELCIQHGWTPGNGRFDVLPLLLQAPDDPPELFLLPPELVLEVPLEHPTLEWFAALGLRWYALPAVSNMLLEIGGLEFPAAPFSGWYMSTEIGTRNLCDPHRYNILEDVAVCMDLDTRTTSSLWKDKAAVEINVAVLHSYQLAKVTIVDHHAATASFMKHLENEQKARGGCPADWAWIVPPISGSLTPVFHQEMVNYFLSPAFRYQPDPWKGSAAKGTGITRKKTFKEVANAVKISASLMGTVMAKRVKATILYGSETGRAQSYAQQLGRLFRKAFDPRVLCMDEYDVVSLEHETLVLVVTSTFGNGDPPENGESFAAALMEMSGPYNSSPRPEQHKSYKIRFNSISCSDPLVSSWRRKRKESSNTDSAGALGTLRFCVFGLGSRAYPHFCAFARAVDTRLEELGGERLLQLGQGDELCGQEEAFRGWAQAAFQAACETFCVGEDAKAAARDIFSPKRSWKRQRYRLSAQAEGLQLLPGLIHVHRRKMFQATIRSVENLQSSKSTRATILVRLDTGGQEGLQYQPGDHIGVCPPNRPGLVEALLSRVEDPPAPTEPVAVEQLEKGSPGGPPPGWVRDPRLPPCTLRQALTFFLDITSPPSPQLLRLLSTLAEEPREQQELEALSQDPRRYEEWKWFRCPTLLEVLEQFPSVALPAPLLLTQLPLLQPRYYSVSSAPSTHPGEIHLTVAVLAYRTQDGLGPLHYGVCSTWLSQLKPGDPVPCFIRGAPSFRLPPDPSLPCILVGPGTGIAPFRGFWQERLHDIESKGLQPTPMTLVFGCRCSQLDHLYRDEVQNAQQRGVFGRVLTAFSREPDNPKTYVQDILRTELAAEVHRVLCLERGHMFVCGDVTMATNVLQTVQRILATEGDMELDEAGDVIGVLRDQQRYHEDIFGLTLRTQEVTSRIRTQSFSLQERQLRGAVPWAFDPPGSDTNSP"}, "blood pressure [7]": {"system": "blood pressure", "details": "in vivo"}, "rabbit aortic rings": {"system": "rabbit aortic rings", "details": "pre-contracted rabbit aortic rings"}, "renal hypertensive dogs": {"system": "renal hypertensive dogs", "details": "chronic oral administration"}, "blood pressure [8]": {"system": "blood pressure", "details": "clinically"}, "[9]": {"system": "vascular smooth muscle cells"}, "L-type calcium channel [10]": {"biological_target": "T2, L-type calcium channel (Rattus norvegicus, UniProt P22002)", "T2 construct": "Effect of puerarin on L-type calcium channel in isolated rat ventricular myocytes; endogenous in cells; host or cells: isolated rat ventricular myocytes", "details": "rat ventricular myocytes"}, "rat aorta [11]": {"system": "rat aorta", "details": "endothelium-intact and endothelium-denuded rat aorta"}, "L-type calcium channel [12]": {"biological_target": "T3, L-type calcium channel (Cavia porcellus, UniProt O35505)", "T3 construct": "calcium channel in isolated guinea pig ventricular myocytes; endogenous in cells; host or cells: isolated guinea pig ventricular myocytes", "T3 sequence (O35505 whole entry)": "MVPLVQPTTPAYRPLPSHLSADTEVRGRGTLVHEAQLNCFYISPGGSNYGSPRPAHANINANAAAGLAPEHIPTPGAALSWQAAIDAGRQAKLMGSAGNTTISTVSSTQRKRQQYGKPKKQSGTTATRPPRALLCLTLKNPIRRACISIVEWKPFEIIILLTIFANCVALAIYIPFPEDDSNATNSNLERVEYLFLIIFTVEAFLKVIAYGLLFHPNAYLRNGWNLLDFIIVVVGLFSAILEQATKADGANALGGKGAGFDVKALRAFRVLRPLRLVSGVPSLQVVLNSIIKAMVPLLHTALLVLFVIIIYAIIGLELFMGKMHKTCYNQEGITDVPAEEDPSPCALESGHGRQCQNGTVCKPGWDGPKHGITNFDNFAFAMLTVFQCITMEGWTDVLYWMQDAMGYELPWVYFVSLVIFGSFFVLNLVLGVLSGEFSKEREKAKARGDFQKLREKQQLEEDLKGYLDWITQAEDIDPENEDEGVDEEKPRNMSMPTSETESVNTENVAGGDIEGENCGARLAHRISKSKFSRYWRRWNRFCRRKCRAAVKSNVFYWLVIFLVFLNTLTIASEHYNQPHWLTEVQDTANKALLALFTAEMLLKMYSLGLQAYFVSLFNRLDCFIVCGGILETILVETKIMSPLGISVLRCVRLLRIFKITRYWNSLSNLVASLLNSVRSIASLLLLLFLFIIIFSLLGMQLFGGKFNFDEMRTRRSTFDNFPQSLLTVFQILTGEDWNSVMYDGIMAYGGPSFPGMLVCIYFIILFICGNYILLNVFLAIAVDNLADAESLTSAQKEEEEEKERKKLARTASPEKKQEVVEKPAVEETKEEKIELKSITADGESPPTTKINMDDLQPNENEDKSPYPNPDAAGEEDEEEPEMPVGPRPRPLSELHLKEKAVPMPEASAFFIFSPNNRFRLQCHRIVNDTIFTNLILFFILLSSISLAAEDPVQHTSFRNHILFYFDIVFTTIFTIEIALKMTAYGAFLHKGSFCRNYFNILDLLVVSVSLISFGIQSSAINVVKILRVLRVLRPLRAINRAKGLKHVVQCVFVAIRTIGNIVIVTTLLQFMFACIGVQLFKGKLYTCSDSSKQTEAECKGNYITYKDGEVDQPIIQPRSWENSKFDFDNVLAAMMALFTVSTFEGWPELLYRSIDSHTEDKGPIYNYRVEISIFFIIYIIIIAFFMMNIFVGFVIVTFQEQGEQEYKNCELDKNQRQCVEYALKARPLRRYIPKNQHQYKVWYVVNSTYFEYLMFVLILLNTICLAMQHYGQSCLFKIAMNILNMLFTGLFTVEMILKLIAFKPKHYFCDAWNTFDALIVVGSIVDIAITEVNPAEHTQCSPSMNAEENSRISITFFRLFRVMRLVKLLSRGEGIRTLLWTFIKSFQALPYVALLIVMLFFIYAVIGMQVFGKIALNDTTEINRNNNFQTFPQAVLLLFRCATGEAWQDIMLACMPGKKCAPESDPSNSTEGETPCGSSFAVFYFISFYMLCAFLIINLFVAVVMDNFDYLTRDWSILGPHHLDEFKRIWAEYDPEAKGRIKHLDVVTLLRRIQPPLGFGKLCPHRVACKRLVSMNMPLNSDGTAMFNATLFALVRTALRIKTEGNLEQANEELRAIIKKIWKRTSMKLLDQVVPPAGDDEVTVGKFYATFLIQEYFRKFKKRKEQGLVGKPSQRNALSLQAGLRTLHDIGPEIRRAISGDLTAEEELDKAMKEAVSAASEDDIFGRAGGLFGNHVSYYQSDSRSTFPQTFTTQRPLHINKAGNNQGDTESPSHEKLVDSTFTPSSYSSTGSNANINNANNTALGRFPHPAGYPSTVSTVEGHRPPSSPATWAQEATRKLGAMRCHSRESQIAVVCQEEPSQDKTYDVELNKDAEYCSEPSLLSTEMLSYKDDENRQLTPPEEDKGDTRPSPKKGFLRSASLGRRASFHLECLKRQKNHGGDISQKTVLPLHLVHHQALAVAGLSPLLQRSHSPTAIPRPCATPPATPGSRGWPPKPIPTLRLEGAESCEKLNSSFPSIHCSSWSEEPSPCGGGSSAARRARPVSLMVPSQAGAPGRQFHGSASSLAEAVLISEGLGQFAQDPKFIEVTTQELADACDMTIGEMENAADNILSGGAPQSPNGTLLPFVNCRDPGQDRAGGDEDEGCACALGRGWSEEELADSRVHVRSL", "details": "isolated guinea pig ventricular myocytes"}, "[13]": {"system": "spontaneously hypertensive rats"}, "[14]": {"system": "vascular smooth muscle cells", "remark": "listed apart in the source"}, "rat aorta [15]": {"system": "rat aorta"}},
  "data": [
    {"compound": "COc1cc([C@H]2Oc3cc(-c4cc(=O)c5c(O)cc(O)cc5o4)cc(OC)c3O[C@@H]2CO)ccc1O", "note": "(racemic) [5′-MHC, 5′-methoxyhydnocarpin]", "values": [
      {"measurement": "accumulation of berberine in the cells", "setting": "[1]", "value": "strong increase"}
    ]},
    {"compound": "O=C(O)CC(O)(C(=O)O)C(O)C(=O)O", "note": "(single isomer, unassigned; (-)) [(−)-hydroxycitric acid (HCA), (−)-hydroxycitric acid]", "values": [
      {"measurement": "blood pressures compared to control", "setting": "[2]", "value": "significantly lowered blood pressures"}
    ]},
    {"compound": "CCCCC[C@H](O)CC(=O)CCc1ccc(O)c(OC)c1", "note": "[(6)-gingerol]", "values": [
      {"measurement": "response on the blood pressure", "setting": "blood pressure [3]", "value": "produced depressor response"}
    ]},
    {"compound": "CCCCC/C=C/C(=O)CCc1ccc(O)c(OC)c1", "note": "[(6)-shogaol]", "values": [
      {"measurement": "response on the blood pressure", "setting": "blood pressure [3]", "value": "produced depressor response"}
    ]},
    {"compound": "COC1=C(OC)C(=O)C(C/C=C(\\C)CC/C=C(\\C)CC/C=C(\\C)CC/C=C(\\C)CC/C=C(\\C)CC/C=C(\\C)CC/C=C(\\C)CC/C=C(\\C)CC/C=C(\\C)CCC=C(C)C)=C(C)C1=O", "note": "[CoQ10, Coenzyme Q10]", "values": [
      {"measurement": "cardiac function", "setting": "[4]", "value": "significant increases in cardiac function"}
    ]},
    {"compound": "CC1C(=O)OC2C(O)C34C5CC(C(C)(C)C)C36C(OC(=O)C6O)OC4(C(=O)O5)C12O", "note": "(centres unmarked) [Ginkgolide B]", "values": [
      {"measurement": "inhibition of platelet activating factor (PAF)", "setting": "[5]", "value": "powerful inhibitor"}
    ]},
    {"compound": "CC(C)=CCC[C@](C)(O[C@@H]1O[C@H](CO)[C@@H](O)[C@H](O)[C@H]1O)[C@H]1CC[C@]2(C)[C@@H]1[C@H](O)C[C@@H]1[C@@]3(C)CC[C@H](O)C(C)(C)[C@@H]3[C@@H](O[C@@H]3O[C@H](CO)[C@@H](O)[C@H](O)[C@H]3O[C@@H]3O[C@@H](C)[C@H](O)[C@@H](O)[C@H]3O)C[C@]12C", "note": "[Ginsenoside Re]", "values": [
      {"measurement": "eNOS activation / NO release", "setting": "[6]", "value": "activate endothelial NO synthase (eNOS) to release NO"}
    ]},
    {"compound": "C[C@@H]1O[C@@H](O[C@@H]2[C@@H](O)[C@H](OCCc3ccc(O)c(O)c3)O[C@H](CO)[C@H]2OC(=O)/C=C/c2ccc(O)c(O)c2)[C@H](O[C@@H]2OC[C@@H](O)[C@@H](O)[C@@H]2O)[C@H](O)[C@H]1O", "note": "[Lavandulifolioside]", "values": [
      {"measurement": "blood pressure", "setting": "blood pressure [7]", "value": "decreases blood pressure"}
    ]},
    {"compound": "O=C(O)CC[N+](=O)[O-]", "note": "[NPA, 3-Nitropropionic acid]", "values": [
      {"measurement": "relaxation of aortic rings", "setting": "rabbit aortic rings", "value": "dose-dependent relaxation"},
      {"measurement": "blood pressure", "setting": "renal hypertensive dogs", "value": "decrease in blood pressure"}
    ]},
    {"compound": "O=c1c(-c2ccc(O)cc2)coc2c([C@@H]3O[C@H](CO)[C@@H](O)[C@H](O)[C@H]3O)c(O)ccc12", "note": "[Puerarin, puerarin]", "values": [
      {"measurement": "decrease of blood pressure", "setting": "laboratory animals", "value": 15, "unit": "%"},
      {"measurement": "systolic and diastolic blood pressure", "setting": "blood pressure [8]", "value": "reduces both systolic and diastolic blood pressure"},
      {"measurement": "NO concentration and blood pressure", "setting": "rats with pre-eclampsia", "value": "elevate the level of NO concentration and decrease blood pressure"},
      {"measurement": "proliferation and DNA synthesis of vascular smooth muscle cells", "setting": "[9]", "value": "suppress"},
      {"measurement": "L-type calcium current", "setting": "L-type calcium channel [10]", "value": "inhibit L-type calcium current"},
      {"measurement": "contractions induced by phenylephrine", "setting": "rat aorta [11]", "value": "completely relaxed"},
      {"measurement": "effect on L-type calcium channel", "setting": "L-type calcium channel [12]", "value": "blocking effect on L-type calcium channel in a concentration dependent manner"}
    ]},
    {"compound": "COc1cc(/C=C/C(=O)O)ccc1O", "note": "[ferulic acid]", "values": [
      {"measurement": "carotid arterial pressure", "setting": "[13]; intravenous injection, anesthetized hypertensive rats", "value": "dose dependently reduced"},
      {"measurement": "systolic blood pressure", "setting": "[13]; oral administration, hypertensive rats", "value": "significantly decreased"}
    ]},
    {"compound": "CCC/C=C1\\OC(=O)C2=C1CCC=C2", "note": "[ligustilide]", "values": [
      {"measurement": "vascular smooth muscle cells proliferation and cell cycle progression", "setting": "[14]", "value": "significantly inhibited"}
    ]},
    {"compound": "Cycloleonuripeptide E", "values": [
      {"measurement": "vasorelaxant effects", "setting": "rat aorta [15]", "value": "moderate vasorelaxant effects"}
    ]},
    {"compound": "cycloleonuripeptide F", "values": [
      {"measurement": "vasorelaxant effects", "setting": "rat aorta [15]", "value": "moderate vasorelaxant effects"}
    ]},
    {"compound": "niacin-bound chromium", "values": [
      {"measurement": "blood pressures compared to control", "setting": "[2]", "value": "significantly lowered blood pressures"}
    ]}
  ]
}
